Assay results: patent US9018188B2, “MicroRNA inhibitors” (Ottawa Hospital Research Institute, priority 2011, dated 2015)

Key:
Format in all cases: in vivo, mouse
TA muscles = assay: High-resolution respirometry on TA muscles after ASO treatment
Excerpt: To quantify bioenergetic effects of miR-133 ASO induced BAT in muscle, Applicant performed high-resolution respirometry on TA muscles after 2 months of either control- or miR-133 ASO treatment (C57BL/6 male fed on RD, n=6 in each treatment group). […] This marked difference in the response to FA is consistent with reported acute activation of mitochondrial respiration rates in brown adipocytes exposed to fatty acids (Matthias et al., 2000).
Surgically extracted tibialis anterior (TA) and contralateral soleus (SOL) muscles were immediately placed in ice-cold biopsy preservation solution (BIOPS) containing […], 7.23 mM K2EGTA buffer, 0.1 μM free calcium, 20 mM imidazole, 20 mM taurine, 50 mM 2-(N-Morpholino)ethanesulfonic acid hydrate (K-MES), 0.5 mM dithiothreitol (DTT), 6.56 mM […], 5.77 mM ATP, and 15 mM phosphocreatine (pH 7.1). The TA muscle was cut longitudinally into 4 equal parts, 2 of which were assessed by respirometry as intact cells and 2 after chemical permeabilization of the sarcolemma. The SOL muscle was cut in half longitudinally and both sections were permeabilized before respirometry. Prior to permeabilization muscle samples were gently dissected with two pairs of sharp forceps, achieving a high degree of fibre separation verified microscopically. Chemical permeabilization was achieved by incubation of the fibres with saponin (50 μg/mL) in 2 mL of BIOPS for 30 minutes at 4° C. (Gnaiger, 2009b). Permeabilized samples were then rinsed with a mitochondrial respiration medium (MiR05) containing 0.5 mM EGTA, 3 mM MgCl2.6H2O, 60 mM K-lactobionate, 20 mM taurine, 10 mM KH2PO4, 20 mM HEPES, 110 mM sucrose, and 1 g/L bovine serum albumin (pH 7.1).
Muscle bundles (both intact TA, and permeabilized TA and SOL) were blotted and measured for wet weight in a balance controlled for constant relative humidity, providing hydration consistency and stability of weight measurements. Each sample was then placed into a single chamber of the high-resolution Oroboros Oxygraph-2k (Oroboros, Innsbruck, Austria) containing MiR05 solution and measured at 37° C. The Oxygraph is a two-chamber titration-injection respirometer with an oxygen detection limit of up to 0.5 pmol·sec^−1·mL^−1. Standardized instrumental calibrations were performed to correct for back-diffusion of oxygen into the chamber from the various components, leak from the exterior, and sensor oxygen consumption. Oxygen flux was resolved by software allowing nonlinear changes in the negative time derivative of the oxygen concentration signal (Oxygraph 2k, Oroboros, Innsbruck, Austria).
Leak respiration was induced with the addition of malate (2 mM) and octanoyl carnitine (0.2 mM). This state represents the oxygen consumption of an unaltered and intact electron transport system (ETS) without the exogenous provision of adenylates. In the LN state, the chemiosmotic gradient is at maximum and oxygen flux represents proton leak, slip, and cation cycling in muscle (Pesta and Gnaiger, 2011) and maximal respiration in BAT induced by fatty acids (Matthias et al. 2000). Further uncoupling of the ETS in muscle cells was assessed with the proton ionophore, carbonyl cyanide p-(trifluoromethoxy) phenylhydrazone (FCCP; 0.7 μM per titration up to concentrations ranging from 2.5-4 μM) to achieve a maximal uncoupling response.
Leak respiration in the absence of adenylates (LN) was induced with the addition of malate (2 mM) and octanoyl carnitine (0.2 mM). Lipid oxidative phosphorylation capacity (PETF) and maximal electron flow through electron transferring-flavoprotein (ETF) was determined following the addition of ADP (5 mM). […]

miR-133a and miR-133b = assay: RT-qPCR of miR-133 expression after intramuscular ASO injection
Excerpt: To investigate miR-133 function in brown adipose determination of satellite cells in vivo, Applicant synthesized miR-133 antagomiR (miR-133 antisense oligonucleotide (ASO)) with an antisense sequence to both miR-133a and miR-133b, as well as a control “antagomiR” (control ASO) with the same chemical modifications and not antisense to any mouse gene or EST sequence (see Experimental Procedures). Applicant performed lineage tracing to distinguish effects of miR-133 ASO on satellite cells versus other cell types. Six week old Pax7-CreER; R26R-tdTomato mice were treated with tamoxifin as before (5 consecutive daily injections), then aged to 10 weeks of age prior to initiating the experiment. Control ASO versus miR-133 ASO were injected into tibialis anterior (TA) muscles 3 days following saline injection (quiescent state) or cardiotoxin injection (to induce activation). After one month, RT-qPCR was performed using RNA isolated from several tissues to evaluate the efficacy and scope of miR-133 ASO administration.
To induce brown adipocytes in vivo, 10 mg/mL Cardiotoxin solution (50 μl) was intramuscularly injected into TA muscles of 10-week old Pax7-CreER/R26R-tdTomato mice (FIG. 4) or C57BL/6 mice (FIG. 5 and FIG. 6). Alternatively, frozen injury was performed by applying liquid nitrogen cooled tweezers tips directly onto the anterior sides of TA muscles. After 3 days, 20 μg of miR-133 antagomiR or control antagomiR in saline (50 μl) was intramuscularly injected into the same injured TA muscles (on right hindlimbs). To test efficacy of miR-133 ASO in intact muscles, saline, instead of Cardiotoxin, was injected to TA muscles before miR-133 ASO administration (FIGS. 4A, 4B). miR-133 antagomiR and scramble antagomiR were designed as previously described (Krutzfeldt et al., 2005).
Total RNA was extracted from cells by TRIzol or Arcturus® PicoPure® RNA Isolation Kit (Applied Biosystems) following manufactures' recommendations. […]

hindlimbs = assay: Thermographic imaging of hindlimb surface temperature
Description: Mouse thermographic imaging was performed with a FUR T640 infrared camera with highest sensitivity set to ˜35° C. Control- or miR-133 ASO treated C57BL/6 male mice fed with either a regular diet or a high fat diet were shaved at both of the hindlimbs one day before the imaging. Subject mice were quickly anesthetized under ˜1% isoflurane and thermographic images were taken immediately after the mice were anesthetized (within 2 minutes). Data analysis was performed using FUR QuickReport software with measuring crosses set on the TA muscle areas on lower hindlimbs and the neck areas.

“*mA*mUmAmGmCmUmGmGmUmUmGmAmAmGmGmGmGmAmC*mC*mA*mA*mAChl [miR-133 ASO]” was tested, and the “additional energy expenditure in the treated TA muscle from uncoupling respiration” value (TA muscles; by calculation) was 0.3 cal/h/mg, the “higher respiration rate versus control” value (TA muscles; intact TA muscle with FA) was 1.75 fold and the “mitochondrial respiration rate after titration of FA (octanoyl carnitine), uncoupled/intact cells” value (TA muscles; intact TA muscle, 2 months after treatment, C57BL/6 male on RD, n=6) was 13.5±1 pmol·sec^−1·lo^−1. For the same substance, the “respiration rate in response to ADP (state-3 respiration mediated by ETF)” value (TA muscles; permeabilized TA muscle) was “unchanged”, the “state 3 respiration rates with complex I+II substrates (P I+II) versus control” value (TA muscles; permeabilized TA muscle, addition of succinate) was “no difference” and the “electron transport through complex I (NADH dehydrogenase) respiration rate” value (TA muscles; permeabilized TA muscle, after titration of glutamate, p=0.2 versus control) was 33±3 pmol·sec^−1lo^−1. For the same substance, the “miR-133a/b expression in the contralateral TA muscles” value (miR-133a and miR-133b; ASO injected into resting muscles) was “repressed”, the “miR-133 expression in the myocardium” value (miR-133a and miR-133b; intramuscular administration) was “unaffected” and the “miR-133a and miR-133b expression within the injected TA muscles” value (miR-133a and miR-133b; intramuscular, one month after injection, resting or regenerating muscle) was “striking reduction”. For the same substance, the “surface temperature of treated hindlimbs higher than control hindlimbs” value (hindlimbs; mice fed with HFD) was 0.9 °C and the “surface temperature of treated hindlimbs higher than control hindlimbs” value (hindlimbs; mice fed with RD) was 0.7 °C.
